Key:
Experiment in all cases: relative viability (nuclei count vs DMSO), 5 days (fraction); higher = more cells survive
Motesanib + Lapatinib = compound: CC1(C)CNc2cc(NC(=O)c3cccnc3NCc3ccncc3)ccc21 [Motesanib] + CS(=O)(=O)CCNCc1ccc(-c2ccc3ncnc(Nc4ccc(OCc5cccc(F)c5)c(Cl)c4)c3c2)o1 [Lapatinib] (partner 2 µM)
Outline: (§1)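 After 5 days of treatment, lung cancer cells in 1536-well plates were fixed and stained in a single step (final 0.05% Triton X-100, 1% formaldehyde, 1 ug/ml Hoechst) and their nuclei counted on 4× images. Treatment had been applied by pin tool the day after seeding as one drug alone or as a fixed anchor-drug dose with five library-drug doses (not always all listed) in √10 steps. Relative viability is the nuclei count of treated wells divided by that of vehicle wells, and values are medians of duplicate plates.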

[1] = compound: C[C@@]1(C(=O)Nc2ccc(F)nc2)CCCN1c1nc(Nc2cc(C3CC3)n[nH]2)c2cccn2n1 + Cc1cc(Nc2cc(N3CCN(C)CC3)nc(Sc3ccc(NC(=O)C4CC4)cc3)n2)n[nH]1 [Tozasertib] (partner 0.1 µM)
Outline: as §1

[2] = compound: C[C@@]1(C(=O)Nc2ccc(F)nc2)CCCN1c1nc(Nc2cc(C3CC3)n[nH]2)c2cccn2n1 + Cc1nc(NC(=O)N2CCC[C@H]2C(N)=O)sc1-c1ccnc(C(C)(C)C(F)(F)F)c1 [Alpelisib] (partner 2 µM)
Outline: as §1

[3] = compound: C[C@@]1(C(=O)Nc2ccc(F)nc2)CCCN1c1nc(Nc2cc(C3CC3)n[nH]2)c2cccn2n1 + O=C(c1cc(Cc2n[nH]c(=O)c3ccccc23)ccc1F)N1CCN(C(=O)C2CC2)CC1 [Olaparib] (partner 8 µM)
Outline: as §1

| Cell Line | relative viability (Motesanib + Lapatinib; first compound 0.01 µM) | relative viability (Motesanib + Lapatinib; first compound 0.03162 µM) | relative viability (Motesanib + Lapatinib; first compound 0.1 µM) | relative viability (Motesanib + Lapatinib; first compound 0.3162 µM) | relative viability (Motesanib + Lapatinib; first compound 1 µM) | relative viability ([1]; first compound 0.04 µM) | relative viability ([1]; first compound 0.1265 µM) | relative viability ([1]; first compound 0.4 µM) | relative viability ([1]; first compound 1.265 µM) | relative viability ([2]; first compound 0.04 µM) | relative viability ([2]; first compound 0.1265 µM) | relative viability ([2]; first compound 0.4 µM) | relative viability ([2]; first compound 1.265 µM) | relative viability ([3]; first compound 0.04 µM) | relative viability ([3]; first compound 0.1265 µM) | relative viability ([3]; first compound 0.4 µM) | relative viability ([3]; first compound 1.265 µM) |
| --- | --- | --- | --- | --- | --- | --- | --- | --- | --- | --- | --- | --- | --- | --- | --- | --- | --- |
| HCC-827 | 0.198 | 0.191 | 0.172 | 0.224 | 0.192 | 0.443 | 0.491 | 0.373 | 0.42 | 0.987 | 1 | 0.93 | 1.01 | 0.663 | 0.769 | 0.55 | 0.716 |
| HOP-62 | 0.968 | 0.97 | 0.957 | 1.33 | 1.09 | 0.371 | 0.393 | 0.298 | 0.337 | 1.04 | 0.843 | 0.897 | 1.11 | 0.39 | 0.172 | 0.386 | 0.404 |
| IA-LM | 0.88 | 0.723 | 0.703 | 0.645 | 0.729 | – | – | – | – | 0.83 | 0.674 | 0.69 | 0.698 | 0.835 | 0.81 | 0.658 | 0.719 |
| LC-2-ad | 0.947 | 0.921 | 0.999 | 1.1 | 0.843 | 0.403 | 0.393 | 0.288 | 0.296 | 0.764 | 0.726 | 0.61 | 0.504 | 0.676 | 0.664 | 0.581 | 0.492 |
| LCLC-97TM1 | 1.04 | 0.96 | 0.688 | 1.09 | 0.967 | 0.122 | 0.103 | 0.0881 | 0.126 | 0.186 | 0.156 | 0.181 | 0.181 | 0.142 | 0.133 | 0.1 | 0.229 |
| LCLC-103H | – | – | – | – | – | 0.474 | 0.472 | 0.394 | 0.473 | 1.01 | 0.818 | 0.829 | 1.08 | 0.716 | 0.655 | 0.518 | 0.762 |
| LK-2 | 0.784 | 1.19 | 0.78 | 1.04 | 0.901 | 0.178 | 0.169 | 0.187 | 0.175 | 1.01 | 1.13 | 0.818 | 1.23 | 0.38 | 0.287 | 0.29 | 0.35 |
| LOU-NH91 | 0.724 | 0.771 | 0.752 | 0.754 | 0.765 | 0.641 | 0.635 | 0.56 | 0.447 | 0.68 | 0.664 | 0.614 | 0.675 | 0.932 | 0.945 | 0.828 | 0.908 |
| LU99A | 1.03 | 1.2 | 0.94 | 1.03 | 0.883 | 0.237 | 0.222 | 0.234 | 0.182 | 0.392 | 0.306 | 0.291 | 0.307 | 0.292 | 0.227 | 0.231 | 0.276 |
| LXF-289 | 0.893 | 0.867 | 0.909 | 1 | 0.949 | 0.167 | 0.121 | 0.14 | 0.14 | 1.09 | 0.991 | 0.975 | 1.1 | 1.07 | 1.1 | 0.933 | 1.07 |
| NCI-H23 | 1.14 | 0.864 | – | 1.13 | 1.11 | 0.382 | 0.269 | 0.316 | 0.516 | 0.595 | 0.407 | 0.41 | 0.601 | 0.252 | 0.227 | 0.225 | 0.21 |
| NCI-H322M | 0.553 | 0.372 | 0.696 | 0.587 | 0.566 | 0.464 | 0.347 | 0.361 | 0.391 | 0.694 | 0.539 | 0.557 | 0.895 | 0.473 | 0.552 | 0.596 | 0.664 |
| NCI-H358 | 0.489 | 0.472 | 0.424 | 0.555 | 0.463 | 0.0856 | 0.0931 | 0.0786 | 0.0689 | 0.505 | 0.427 | 0.344 | 0.406 | 0.477 | 0.311 | 0.183 | 0.233 |
| NCI-H441 | – | – | – | – | – | 0.496 | 0.403 | 0.349 | 0.369 | 0.616 | 0.547 | 0.492 | 0.56 | 0.373 | 0.368 | 0.345 | 0.332 |
| NCI-H522 | – | – | – | – | – | 0.571 | 0.459 | 0.537 | 0.562 | – | – | – | – | 0.66 | 0.588 | 0.615 | 0.596 |
| NCI-H1299 | 0.958 | 0.979 | 0.995 | 1.01 | 0.935 | – | – | – | – | 1.11 | 1.05 | 1.07 | 1.09 | 0.976 | 0.97 | 0.887 | 0.964 |
| NCI-H1563 | 0.9 | 0.991 | 1.08 | 0.923 | 0.951 | – | – | – | – | 0.943 | 0.891 | 0.913 | 0.85 | – | – | – | – |
| NCI-H1623 | – | – | – | – | – | 0.391 | 0.397 | 0.349 | 0.371 | – | – | – | – | – | – | – | – |
| NCI-H1648 | – | – | – | – | – | 0.449 | – | – | 0.336 | – | – | – | – | 0.446 | 0.746 | 0.422 | 0.7 |
| NCI-H1650 | 0.807 | – | 0.667 | 0.723 | 0.735 | 0.345 | 0.29 | 0.258 | 0.255 | – | – | – | – | 0.692 | 0.846 | 0.678 | 0.729 |
| NCI-H1703 | 1.05 | 0.679 | 0.526 | 0.334 | 0.323 | – | – | – | – | 0.485 | 0.266 | 0.28 | 0.3 | 0.402 | 0.428 | 0.421 | 0.357 |
| NCI-H1792 | 0.881 | 0.854 | 0.843 | 0.926 | 0.945 | – | – | – | – | 0.618 | 0.538 | 0.58 | 0.686 | 0.194 | 0.175 | 0.0767 | 0.161 |
| NCI-H2342 | – | – | – | – | – | 0.534 | 0.453 | 0.346 | 0.499 | – | – | – | – | 0.438 | 0.449 | 0.336 | 0.329 |
| SW 900 | – | – | – | – | – | 0.525 | 0.551 | 0.464 | 0.29 | – | – | – | – | 1.02 | 0.895 | 0.721 | 0.717 |
